These results are taken from patent US20250269031A1, “MITOCHONDRIA TARGETING QUINOLINIUM-DRUG CONJUGATES AND THEIR SELF-ASSEMBLING NANOFORMULATIONS FOR CANCER THERAPY” (THE REGENTS OF THE UNIVERSITY OF CALIFORNIA, priority 2020, published 2025).

Read-outs that look alike come from different tables or passages of the source.

In data set [1] the test system is OSC-3 cells. As to the kind of experiment: Cell TEM study of mitochondria morphology. The class given is cell-based. The note with it: 0.5 μM, 24 h.
For data set [2], the system named is OSC-3 cells. Nature of the data set: Mitochondrial membrane potential assay (JC-1). In kind it is cell-based. The note with it: 1 μM, with light. How it is done: The mitochondrial membrane potential was determined using the dye JC-1 as a probe (Thermo Fisher Scientific, USA). Briefly, OSC-3 cells (2×10^4 cells per well) were treated with drugs (1 μM) for 24 h. […] JC-1 (5 μg mL^−1) was added to incubate for 20 min. Cell imaging was performed on a CLSM (Carl Zeiss, Germany). The ratio of red/green fluorescence intensity was calculated by ImageJ software.

The subject of data set [3] is OSC-3 cells. As to the kind of experiment: Cell viability assay (CellTiter-Glo), OSC-3. Particulars: for IC50: read-out: IC50 cytotoxicity; for anticancer effect: OSC-3, with light, 0.3 μM to 1 μM. The class given is cell-based.
Experimental: OSC-3, BXPC-3, AsPC-1, PANC-1, UM-UC-3, 5637, or IMR90 cells were seeded in 96-well plates at a density of 5×10^3 cells per well and were grown overnight. Cells were incubated with various concentrations of drugs for 24 h, followed washing with PBS three times, and adding 100 μL fresh medium. For light-treated groups, cells were irradiated for 30 s using a 633-nm LED array (Omnilux new-U) at a power density of 30 mW cm^−2 at room temperature and then were cultured for another 24 h in parallel with non-light treated groups. Cell viability was quantified using the CellTiter-Glo assay (Promega, USA).
Data set [4] deals with subcutaneous OSC-3 tumor. As to the kind of experiment: In vivo anticancer study, subcutaneous oral cancer model. Further details: species or system nude mice. Particulars: for H&E staining of tumors: 24 h drug, then laser; for antitumor effect: with laser; for antitumor efficacy: without laser. An excerpt:
(§1) Female athymic nude mice, 6-week-old, were purchased from Envigo (Indianapolis, IN, USA). All animal experiments were strictly performed in compliance with the protocol (#20265) approved by the Institutional Animal Care and Use Committee at the University of California, Davis. The subcutaneous and orthotopic tumor models were established by inoculated OSC-3 cells into both flanks (5×10^6 cells per tumor) or lower lips (1×10^6 cells per tumor) of nude mice. When the subcutaneous tumors reached about 80 mm^3 and orthotopic tumors reached about 50 mm^3, the mice started to be treated as indicated.
Laser (680 nm) treatment was conduct by a laser device within an energy of 0.2 W cm^−2 for 6 min (Shanghai Xilong Optoelectronics Technology, China). […] The drug was intratumorally injected into mice at a dose of 1 mM (10 nmol per 50 mm^3 tumor). Laser treatment was performed for a total of four times, one each on days 1, 2, 5, and 6 post-injection of drugs. The relative tumor value and body weight were recorded every two days. In subcutaneous models, the tumors in the right flank of mice were subjected to laser treatment, while the left tumors were not. In orthotopic models, all tumors were treated with the laser treatment. The temperature of tumor surface was monitored using a thermal camera (FLIR Systems, USA) immediately after laser treatment. ROS production in the tumor after light treatment was also measured using DCF-DA as an indicator. Briefly, the tumor was treated with different drugs via intratumoral injection at first. Then, the mice with tumors were treated with the laser at 1st, 2nd, 5th, and 6th day independently. After each light treatment, the mice were sacrificed immediately, and the obtained tumors were cut into small pieces and immersed in the DCF-DA solutions for 10 min. Finally, the tumors pieces were imaged by the ChemiDoc™ MP imaging system with the FITC channel. The fluorescence intensity of DCF-DA was quantified by Image J software. Mice were sacrificed after the first light treatment to obtain tumor and organs tissue for TEM, H&E, and IHC evaluation.

The subject of data set [5] is Pancreatic cancer stem cells. As to the kind of experiment: Sphere formation. The class given is cell-based. Particulars: 5 μM, 10 days.
Experimental: Pancreatic cancer stem cells (3000 cells per well) were mixed with matrigel and medium, and then placed in 24-well plates with pre-embedded matrigel and medium. After 24 h incubation, CSC cells were then treated with different agents as indicated and cultured for 10 days. The cells were imaged as shown in FIG. 33A and the sphere diameters were calculated by ImageJ and are plotted in FIG. 33B.
Data set [6] relates to CSC cells. As to the kind of experiment: Mitochondria membrane potential (JC-1), CSC. In kind it is cell-based. The note with it: 24 h. How it is done:
Mitochondria membrane potential. JC-1 dye was used as an indicator of mitochondrial membrane potential. Briefly, Cells (2×10^4 cells per well) were treated as indicated for 24 h, washed and cultured with fresh medium. Then 0.5 μg/mL JC-1 was added for another 30 min incubation. Images were captured by CLSM.

Data set [7] has as its system CSC cells. As to the kind of experiment: Seahorse assay (oxygen consumption rate). The class given is cell-based. The note with it: 24 h.
Experimental: Seahorse assay. CSC cells (2×10^4 cells per well) were treated as indicated for 24 h. The Oxygen Consumption Rate (OCR) were measured by the Agilent Seahorse XF analyzer.
In data set [8] the test system is Pancreatic cancer stem cells. As to the kind of experiment: Cell growth assay. In kind it is cell-based. Particulars: 2 μM. Here is the method:
Cell growth. Pancreatic cancer stem cells were plated in 6-well plates (50,000 cell per well) and treated as indicated and were counted manually every 24 h. The cell growth is plotted over time in FIG. 31C.

Data set [9] concerns Pancreatic cancer stem cells (CSC). As to the kind of experiment: Cell viability assay, pancreatic cancer stem cells. The class given is cell-based. How it is done:
Cell viability assay. Pancreatic cancer stem cells (CSC, 5×10^3 cells per well) was plated in 96-well plates, incubated overnight, and then were treated with different concentrations of agents as indicated. After 72 h treatment, cell viability was quantified using the CellTiter-Glo assay Cell viability curves and the chemical structures of LM, LND, and m104 are shown in FIG. 31A and FIG. 31B.

A further data set concerns Bxpc-3 and AsPc cells. Nature of the data set: Cell viability, Bxpc-3 and AsPc. Particulars: 72 h treatment. In kind it is cell-based. Here is the method: Cell viability. Bxpc-3 and AsPc cells (CSC, 5×10^3 cells per well) was plated in 96-well plates, incubated overnight, and then were treated with different concentrations of agents as indicated. After 72 h treatment, cell viability was quantified using the CellTiter-Glo assay.

In data set [10] the test system is CSC spheres (with Stella cell). Nature of the data set: Sphere growth, CSC spheres with Stella cell. The class given is cell-based. Particulars: 5 μM.
Experimental: Sphere growth. […] CSC cells (800 cells per well) and stella cells (400 cells per well) were plated together in 96-well low-attachment plates and incubated overnight. CSC spheres then were treated with different agents as indicated. Spheres growth was monitored by CLSM (every two days).
Data set [11] deals with OSC-3 cells. As to the kind of experiment: Colocalization assay (MitoTracker, LysoTracker, CLSM). In kind it is cell-based. Particulars: 2 μM, 4 h. How it is done:
OSC-3 cells were treated with PQC NFs (2 μM) for various times (from 5 min to 8 h) or with PA (2 μM) for 4 h, followed by incubation with LysoTracker Green (Thermo Fisher Scientific, USA) and MitoTracker Red (Cell Signaling Technology, USA) for 30 min. Cells were visualized on confocal laser scanning microscopy (CLSM) (Carl Zeiss, Germany) immediately to investigate the subcellular localization. Signals of PQC NPs and PA were observed on the Cy5 channel. LysoTracker and MitoTracker were observed according the manufacturer's instructions. The corresponding Pearson correlation coefficient was calculated by ImageJ software.

Another data set relates to OSC-3 tumors. Nature of the data set: Intratumoral ROS production (DCF-DA, ex vivo imaging). The class given is in vivo, nude mice. The note with it: laser at days 1, 2, 5, 6 post-injection. Here is the method: Laser (680 nm) treatment was conduct by a laser device within an energy of 0.2 W cm^−2 for 6 min (Shanghai Xilong Optoelectronics Technology, China). Mice bearing subcutaneous and orthotopic tumors were randomly divided into four groups (n=6): Vehicle (PBS), DQA, PA, and PQC NFs. The drug was intratumorally injected into mice at a dose of 1 mM (10 nmol per 50 mm^3 tumor). Laser treatment was performed for a total of four times, one each on days 1, 2, 5, and 6 post-injection of drugs. The relative tumor value and body weight were recorded every two days. In subcutaneous models, the tumors in the right flank of mice were subjected to laser treatment, while the left tumors were not. In orthotopic models, all tumors were treated with the laser treatment. The temperature of tumor surface was monitored using a thermal camera (FLIR Systems, USA) immediately after laser treatment. ROS production in the tumor after light treatment was also measured using DCF-DA as an indicator. Briefly, the tumor was treated with different drugs via intratumoral injection at first. Then, the mice with tumors were treated with the laser at 1st, 2nd, 5th, and 6th day independently. […] The fluorescence intensity of DCF-DA was quantified by Image J software. […]

Data set [12] can be described thus: Characterization of PQC NFs (TEM, DLS). The class given is physicochemical. How it is done:
Preparation and Characterization of PQC NFs: Briefly, PQC monomers in ethanol were added dropwise into deionized water under stirring. Ethanol in the solution was removed by vacuum rotary evaporation at 37° C. and the self-assembling PQC NFs were formed spontaneously. The aqueous nanofiber solution (0.02 mg mL^−1) was deposited on copper grids to prepare samples for transmission electron microscope (TEM). The morphology was observed by a Talos L120C TEM (Thermo Fisher Scientific, USA). The UV-Vis and fluorescence spectra were measured by a UV-Vis spectrometer (UV-1800, Shimadzu, Japan) and a fluorescence spectrometer (RF-6000, Shimadzu, Japan), respectively. NIR fluorescence imaging studies was performed by a ChemiDoc™ MP imaging system (Bio-Rad, USA). The ^1O2 production was detected using SOSG (Thermo Fisher Scientific, USA) as an indicator. Briefly, SOSG solution was added into drug solutions in 96 wells plate. […] Fluorescence intensity was determined by a microplate reader (Tecan, Switzerland). The ultrafiltration experiment of PQC NFs were conducted using a centrifuge (10k rpm, 10 min) and a centrifuge tube (10 kDa, Beckman Coulter, USA).

Data set [13] deals with subcutaneous OSC-3 tumor. Nature of the data set: In vivo fluorescence imaging, tumor retention. Details: species or system nude mice. Particulars: intratumoral injection, 10 nmol per 50 mm^3.
From the text: as §1
The subcutaneous tumor model was used in fluorescence imaging study in vivo of PA and PQC NFs. PA and PQC NFs (10 nmol per 50 mm^3 tumor) were administered by intratumoral injection. Fluorescence imaging were performed on a ChemiDoc™ MP imaging system (Bio-Rad, USA) at different time points post-injection.

Data set [14] deals with OSC-3 cells. As to the kind of experiment: Apoptosis assay (Annexin V-APC/PI). The class given is cell-based. Here is the method: Apoptosis assay was performed with the Annexin V-APC/propidium iodide (PI) apoptosis kit (Biolegend, USA). […] […] Cells were stained with the apoptosis kit according to the manufacturer's instructions. All samples of cells were collected for flow cytometry using a BD FACSCanto flow cytometer (BD, USA). Data analysis was accomplished using FlowJo software.

In the case of `Cc1cc(N)c2ccccc2[n+]1CCCCCCCCCC[n+]1c(C)cc(N)c2ccccc21` [DQA, dequalinium], the “morphological changes in mitochondria (TEM)” value (“morphological changes” for short) in the data set with OSC-3 cells [1] (with light) is “morphologically changed mitochondria with and without light treatment”. Also, the “mitochondrial membrane potential change (JC-1)” value in the data set with OSC-3 cells [2] is given as “not effective enough to cause a signal change”. In the data set with OSC-3 cells [3] (OSC-3, absence of light, 24 h + 24 h), the IC50 is 3 µM. Also, in the data set on OSC-3 cells [3], the anticancer effect result is “did not show obvious anticancer effects”. Also, in the data set on subcutaneous OSC-3 tumor [4], the “H&E staining of tumors” value is given as “no significant cell death”, the antitumor effect result is “did not show an obvious antitumor effect” and the antitumor efficacy result is reported as “did not show significant antitumor efficacy”.

`Cc1cc(N)c2ccccc2[n+]1CCCCCCCCCCNC(=O)c1nn(Cc2ccc(Cl)cc2Cl)c2ccccc12` [LM]: in data set [5], the tumorsphere formation entry is reported as “blocked tumorsphere formation in CSCs”. Moreover, in the data set on CSC cells [6], the “mitochondrial membrane potential (JC-1)” value was “decreased Δψm”. Moreover, in the data set on CSC cells [7], the “oxygen consumption rate (Mito stress test)” value is “decrease in basal mitochondrial respiration and spare respiration capacity”. Also, in data set [8], the cell growth result was “inhibitory effects”. For the same molecule, in [9] (72 h), the 50% inhibitory concentration (IC50) worked out at 0.46 ± 0.05 µM. Moreover, the “potency on other pancreatic tumor cells” value with Bxpc-3 and AsPc cells was “more potent than LND, m104, mixture of LND and m104”. For the same molecule, the “CSC tumorsphere (with Stella cell) growth” value in data set [10] was “inhibits CSC tumorsphere (with Stella cell) growth”.

As to `O=C(O)c1nn(Cc2ccc(Cl)cc2Cl)c2ccccc12` [LND, 1-(2,4-dichlorobenzyl)-1H-indazole-3-carboxylic acid], in [5], the tumorsphere formation entry is “limited inhibition”. Also, the “oxygen consumption rate (Mito stress test)” value with CSC cells [7] was “no significant impact on OCRs”. Further, the IC50 in data set [9] (CSC, 72 h treatment, read-out: IC50) turned out to be 30 ± 2.2 µM. In addition, the “CSC tumorsphere (with Stella cell) growth” value in data set [10] is “no effect”.

In the case of pheophorbide a [PA], the subcellular colocalization result in the data set with OSC-3 cells [11] is “low-level colocalization with mitochondria or lysosomes”. The “ROS levels in tumors” value in the data set on OSC-3 tumors was “high at 24 h post-injection and decreased quickly at later time points”. This molecule also came in with a surface charge in data set [12] of −11.5±1.3 mV. In the data set with OSC-3 cells [1] (with light), the “morphological changes” value was “only caused some mitochondrial swelling”. Moreover, the “morphological changes” value with OSC-3 cells [1] (without light) is listed as “healthy mitochondria”. Moreover, the “mitochondrial membrane potential change (JC-1)” value in the data set on OSC-3 cells [2] is listed as “not effective enough to cause a signal change”. In addition, the “fluorescence within tumors over time” value in the data set on subcutaneous OSC-3 tumor [13] is “nearly undetectable at the 4th day post-injection”. Further, the apoptosis induction result with OSC-3 cells [14] (0.2 μM, with light) was “failed to induce apoptosis”. For the same molecule, the “Annexin V positive population” value in the data set on OSC-3 cells [14] (2 μM, 24 h, light, another 12 h) worked out at 19.3%. Also, in the data set with OSC-3 cells [3] (OSC-3, absence of light), the cytotoxicity result is given as “did not show cytotoxicity even at 100 uM”. Further, in the data set on OSC-3 cells [3] (OSC-3, light treatment 30 mW cm^-2 for 30 s, 633 nm), the half-maximal inhibitory concentration (IC50) was found to be 2.57 µM. Moreover, the anticancer effect result in the data set on OSC-3 cells [3] was “did not show obvious anticancer effects”. In the data set on subcutaneous OSC-3 tumor [4], the “H&E staining of tumors” value is listed as “only a small portion of tumor tissue showed apoptosis/necrosis”, the antitumor effect entry is recorded as “effectively inhibited tumor growth but did not shrink the tumors” and the antitumor efficacy entry is “did not show significant antitumor efficacy”.
